# According to patent US7968607B2, “Skin pore minimizers and skin elasticity improvers” (Koa Corporation, priority 2000, dated 2011):
# Structures can show the parent of a compound that is named as a salt.
# Legend:
# [1] = test system: human skin fibroblasts (derived from a human fore skin); assay: Collagen gel tightening promoting ability (fibroblast-embedded collagen gel, dermis model); format: cell-based; conditions: Homo sapiens, Skin fibroblast, 48 hours, relative volume, control = 100%
# Method: Measurement was conducted on the ability to promote the tightening of a fibroblast-embedded collagen gel as a dermis model. The collagen gel was prepared following the procedure reported in a publication [J. Cell Science, 102, 315 (1992) or J. Invest. Dermatol., 93, 792 (1989)]. Described specifically, a solution of HEPES (250 mM) in a 0.05 N sodium hydroxide solution, a 5-fold concentrate of DMEM (“GIBCO DMEM”, low glucose), FCS (2%, Fetal Calf Serum) and purified water were added under ice cooling to a collagen gel solution (product of Nitta Gelatin Inc., “type 1-A” (3.0 mg/mL, pH=3)), and finally, a suspension of human skin fibroblasts (derived from a human fore skin) was added. After the resulting mixture was thoroughly stirred to eliminate bubbles, 600 μL per well was added to 24-well dishes, followed by immediate warming at 37° C. in an incubator to effect gelation. Three to four hours later, 1 mL of serum-free DMEM medium was added to each of the wells, and the gels were separated at peripheries thereof from the corresponding dishes and were brought into a floating state. Eighteen hours after that, the medium was replaced with serum-free DMEM media which contained 100 to 10 μM of test substances, respectively, and incubation was conducted further for 48 hours.
# Volume measurement of the gels was conducted by a weight measuring method similar to that reported in the publication [J. Cell Science, 102, 315 (1992)]. Described specifically, subsequent to immobilization with 10% formalin (4° C., 24 hours), the surface tension of water was reduced by the addition of Triton X100 (product of Wako Pure Chemical Industries) (1%), and the weights were measured.
# Measurement results of relative volumes for the respective compounds as calculated supposing that the volume of the control was 100% are presented in Table 3.
# [2] = test system: dorsal skin of HR rats (WBN/ILA-HT); assay: Rat skin elasticity improving (tightening) effect, cutometer; format: in vivo; conditions: 2% solution in 10% ethanol sprayed on dorsal skin, 0.7 mL, 7 to 8 times a week, two weeks
# [3] = test system: dorsal skin of HR rats (WBN/ILA-HT); assay: as above; format: in vivo; conditions: for Ur/Uf / Ue (instantaneous elastic displacement) / Uf (final displacement) / Ur (instantaneous recovery displacement): 2% solution in 10% ethanol, two weeks; for Ur/Uf: cutometer; for Ue (instantaneous elastic displacement) / Uf (final displacement) / Ur (instantaneous recovery displacement): cutometer 100 hpa, 5 s suction, 2 s release; for skin elasticity / skin tightening effect: when applied, from Table 4 and Table 5
# Method: Onto the entire dorsal skins of HR rats (WBN/ILA-HT, 7 weeks old), 2% solutions of Compounds 1 and 4 (solvent: 10% ethanol) were applied in the form of spray, respectively, once or twice a day, 7 to 8 times a week in total, in an amount of 0.7 mL each time. As a control, 10% ethanol solution was used. Two weeks later, the skin elasticity of the skin at a central dorsal part at a site slightly rightward of the median line of each HR rat was measured under Nembutal anesthesia by using a cutometer (“CUTOMETER SEM474”, Courage+Khazaka Electronic GmbH). The measurement was conducted by setting the suction pressure, suction time and release time at 100 hpa, 5 seconds and 2 seconds, and an instantaneous elastic displacement Ue, an instantaneous recovery displacement Ur and a final displacement Uf were recorded. Based on changes in the skin elasticity, skin tightening effect was determined. Ue is an index of elasticity, while Uf is an index of softness and malleability. Both of these values decrease on the face or the like upon aging, and also decrease when the skin is in a swollen state. Increases in these values, therefore, can be taken as an indication of a state that the skin is in a tightened state with its softness, melleability and elasticity having been increased further. Ur is also an index of elasticity, and decreases when the skin is in a saggy state or a swollen state. Similarly, an increase in this value serves as an indication of a state that the skin is in a tightened state with its elasticity and tightness having been increased further. Further, Ur/Uf is also an index of the elasticity of the skin, and like Ur, decreases when the skin becomes saggy or is swollen. Moreover, Ur/Uf is known to decrease upon aging irrespective of the face or body site, and is an important index of sagginess.
# [4] = test system: human skin fibroblasts (derived from a human fore skin); assay: Collagen gel tightening promoting ability (fibroblast-embedded collagen gel, dermis model); format: cell-based; conditions: 48 hours, relative volume, control = 100%
SMILES,activity at 10 µM [1] [%],activity at 30 µM [1] [%],Skin thickness (mm) [2] [mm],Ur/Uf [3],Ue (instantaneous elastic displacement) [3],Uf (final displacement) [3],Ur (instantaneous recovery displacement) [3],skin elasticity / skin tightening effect [3],"activity at 15 µM ([1]; 15 μM, read-out: Average gel volume) [%]","activity at 50 µM ([1]; 50 μM, read-out: Average gel volume) [%]",activity at 3 µM [4] [%]
"CCCCCCCCCCCCOCC(O)COS(=O)(=O)[O-].[Na+] (stereo not shown) [Compound 1, 1-dodecylglycerol-3-sulfate sodium salt]",93,85,0.820,0.540,0.113,0.159,0.834,increased the skin elasticity and exhibited skin tightening effect,,,
"CCCCCCCCCCOCC(O)COP(=O)([O-])[O-].[Na+].[Na+] (stereo not shown) [Compound 4, 1-decylglycerol-3-phosphate disodium salt]",,,0.725,0.401,0.225,0.275,0.109,increased the skin elasticity and exhibited skin tightening effect,96,88,
"CC(C)CCCCCCCCCCCCCCCOCC(O)COS(=O)(=O)O (stereo not shown) [Compound 3, 1-isostearylglycerol-3-sulfate sodium salt]",74,95,,,,,,,,,86
